Source: publication PMC11887451, “Leveraging Immunogenic Cell Death to Enhance the Immune Response against Malignant Pleural Mesothelioma Tumors” (Journal of the American Chemical Society, 2025)

Assays:
Conditions in all cases: exposure time 72 h
[1] = system: murine malignant mesothelioma cell line AB12; test: MTT cytotoxicity assay, 72 h, AB12; format: cell-based, mouse
[2] = system: human malignant mesothelioma cell line JU77; test: MTT cytotoxicity assay, 72 h, JU77; format: cell-based
[3] = system: human nonmalignant mesothelioma cell line Met5A; test: MTT cytotoxicity assay, 72 h, Met5A; format: cell-based
[4] = system: patient-derived Meso92 cell line (biphasic MPM); test: MTT cytotoxicity assay, 72 h, Meso92; format: cell-based, human
[5] = system: patient-derived Meso84 cell line (sarcomatoid MPM); test: MTT cytotoxicity assay, 72 h, Meso84; format: cell-based, human
From the text: (§1) Human malignant mesothelioma cancer cell lines JU77 and LO68 were obtained from Cell Bank Australia (Children's Medical Research Institute, Westmead, Australia). Mouse malignant mesothelioma cancer cell line AB12, human nonmalignant mesothelioma cancer cell line Met5A (mesothelial cells), mouse macrophage cell line J774 and human monocytic cell line THP-1 were obtained from American Type Culture Collection (ATCC) (Rockville, MD, USA). Human malignant mesothelioma cell lines VMC23 (epithelial), Meso82 (sarcomatous), Meso92 (biphasic), were kindly provided by Prof. Walter Berger (Medical University of Vienna). All cells except for J774 were cultured in RPMI and J774 cells were cultured in DMEM. Both types of media were supplemented with 10% FBS and 1% penicillin-streptomycin (10,000 U/mL). Cells were grown in tissue culture flasks (75 cm2 and 25 cm2, SPL Life Sciences Co., Ltd., Korea). All cell lines were grown at 37 °C in a humidified atmosphere of 95% air and 5% CO 2 and passaged when they reached 80–90% confluency. All Au stock solutions were prepared in 1% DMSO in the respected medium, ensuring that cell viability was not inhibited.
(§2) The cytotoxicity of compounds was determined using an MTT colorimetric test. The cells were harvested from culture flasks by trypsinization and seeded into Cellstar 96 -well microculture plates (Greiner Bio -One) at the seeding density of 6000 cells per well (6 × 10^4 cells/mL). After
(§3) the cells were allowed to resume exponential growth for 16 h, they were exposed to drugs at
(§4) different concentrations in media for 72 h. The drugs were diluted in a complete medium at the desired concentration added to each well (100 μL) and serially diluted in other wells. After exposure for 72 h, the media was replaced with MTT in media (5 mg/mL, 100 μL/well) and
(§5) incubated for an additional 50 min. Subsequently, the medium was aspirated, and the purple formazan crystals formed in viable cells were dissolved in DMSO (100 μL/well). Optical densities were measured at 570 nm using a BioTek Synergy H1 microplate and MultiskanTM SkyHigh plate readers. The quantity of viable cells was expressed in terms of treated/control (T/C) values in comparison to untreated control cells, and 50% inhibitory concentrations (IC 50) were calculated from concentration-effect curves by interpolation. An evaluation was based on means from at least three independent experiments, each comprising three replicat es per
(§6) DMSO had not impact on the cell viability at the concentrations used.

[6] = system: patient-derived VMC23 cell line (epithelioid MPM); test: MTT cytotoxicity assay, 72 h, VMC23; format: cell-based, human
From the text: as §1, §2, §3, §4, §5, §6

[7] = system: human malignant mesothelioma cell line LO68; test: MTT cytotoxicity assay, 72 h, LO68; format: cell-based
From the text: as §1, §2, §3, §4, §5, §6

## CC[N+](CC)=C1[S][Au-]2([S]1)[c]1ccccc1Cc1cccc[n+]12.F[P-](F)(F)(F)(F)F (stereo not shown) [2B]
[1]
  IC50: 300 ± 60 nM
[2]
  IC50: 3000 ± 400 nM
[3]
  IC50: 530 ± 80 nM
[4]
  IC50: 6200 ± 1700 nM
[5]
  IC50: 420 ± 120 nM
[6]
  IC50: 6600 ± 1700 nM
[7]
  IC50: 2200 ± 400 nM

## COC1c2cccc[c]2[Au-]2([S]C(=[N+]3CCCC3)[S]2)[n+]2ccccc21.F[P-](F)(F)(F)(F)F (racemic) [4F]
[1]
  IC50: 320 ± 50 nM
[2]
  IC50: 3300 ± 800 nM
[3]
  IC50: 740 ± 90 nM
[4]
  IC50: 1700 ± 500 nM
[5]
  IC50: 340 ± 100 nM
[6]
  IC50: 2900 ± 300 nM
[7]
  IC50: 1400 ± 200 nM

## F[P-](F)(F)(F)(F)F.c1cc[c]2c(c1)-c1cccc[n+]1[Au-]21[S]C(=[N+]2CCCC2)[S]1 (stereo not shown) [1F]
[1]
  IC50: 200 ± 60 nM
[2]
  IC50: 1500 ± 100 nM
[3]
  IC50: 180 ± 50 nM
[4]
  IC50: 220 ± 60 nM
[5]
  IC50: 190 ± 40 nM
[6]
  IC50: 930 ± 280 nM
[7]
  IC50: 1700 ± 300 nM

## C[N+](C)=C1[S][Au-]2([S]1)[c]1ccccc1-c1cccc[n+]12.F[P-](F)(F)(F)(F)F (stereo not shown) [1A]
[1]
  IC50: 88 ± 2 nM
[2]
  IC50: 1100 ± 300 nM
[3]
  IC50: 310 ± 70 nM
[4]
  IC50: 190 ± 40 nM
[5]
  IC50: 1300 ± 300 nM
[6]
  IC50: 630 ± 150 nM
[7]
  IC50: 1000 ± 300 nM

## CC[N+](CC)=C1[S][Au-]2([S]1)[c]1ccccc1-c1cccc[n+]12.F[P-](F)(F)(F)(F)F (stereo not shown) [1B]
[1]
  IC50: 190 ± 20 nM
[2]
  IC50: 890 ± 130 nM
[3]
  IC50: 530 ± 70 nM
[4]
  IC50: 690 ± 210 nM
[5]
  IC50: 85 ± 7 nM
[6]
  IC50: 1600 ± 300 nM
[7]
  IC50: 550 ± 160 nM

## COC1c2cccc[c]2[Au-]2([S]C(=[N+]3CCCCCC3)[S]2)[n+]2ccccc21.F[P-](F)(F)(F)(F)F (racemic) [4G]
[1]
  IC50: 230 ± 60 nM
[2]
  IC50: 2400 ± 700 nM
[3]
  IC50: 2000 ± 300 nM
[4]
  IC50: 4800 ± 500 nM
[5]
  IC50: 1800 ± 400 nM
[6]
  IC50: 3500 ± 700 nM
[7]
  IC50: 1600 ± 200 nM

## F[P-](F)(F)(F)(F)F.c1ccc(C[N+](Cc2ccccc2)=C2[S][Au-]3([S]2)[c]2ccccc2Nc2cccc[n+]23)cc1 (stereo not shown) [5D]
[1]
  IC50: 1100 nM
[2]
  IC50: 520 ± 80 nM
[3]
  IC50: 1000 ± 200 nM
[4]
  IC50: 1100 ± 200 nM
[5]
  IC50: 1100 ± 300 nM
[6]
  IC50: 1300 ± 300 nM
[7]
  IC50: 950 ± 130 nM

## COC1c2cccc[c]2[Au-]2([S]C(=[N+](C)C)[S]2)[n+]2ccccc21.F[P-](F)(F)(F)(F)F (racemic) [4A]
[1]
  IC50: 290 ± 40 nM
[2]
  IC50: 1400 ± 200 nM
[3]
  IC50: 720 ± 210 nM
[4]
  IC50: 160 ± 30 nM
[5]
  IC50: 190 ± 30 nM
[6]
  IC50: 4700 ± 700 nM
[7]
  IC50: 1300 ± 300 nM

## C[N+](C)=C1[S][Au-]2([S]1)[c]1ccccc1C(=O)c1cccc[n+]12.F[P-](F)(F)(F)(F)F (stereo not shown) [3A]
[1]
  IC50: 140 ± 40 nM
[2]
  IC50: 1900 ± 500 nM
[3]
  IC50: 440 ± 130 nM
[4]
  IC50: 530 ± 110 nM
[5]
  IC50: 1200 ± 200 nM
[6]
  IC50: 640 ± 60 nM
[7]
  IC50: 990 ± 190 nM

## CC[N+](CC)=C1[S][Au-]2([S]1)[c]1ccccc1C(OC)c1cccc[n+]12.F[P-](F)(F)(F)(F)F (racemic) [4B]
[1]
  IC50: 330 ± 100 nM
[2]
  IC50: 4800 ± 700 nM
[3]
  IC50: 430 ± 130 nM
[4]
  IC50: 6300 ± 1000 nM
[5]
  IC50: 1700 ± 500 nM
[6]
  IC50: 7300 ± 1800 nM
[7]
  IC50: 2900 ± 800 nM

## CC[N+](=C1[S][Au-]2([S]1)[c]1ccccc1Nc1cccc[n+]12)c1ccccc1.F[P-](F)(F)(F)(F)F (stereo not shown) [5E]
[1]
  IC50: 180 ± 10 nM
[2]
  IC50: 440 ± 130 nM
[3]
  IC50: 280 ± 80 nM
[4]
  IC50: 400 ± 50 nM
[5]
  IC50: 510 ± 100 nM
[6]
  IC50: 340 ± 40 nM
[7]
  IC50: 760 ± 180 nM

## F[P-](F)(F)(F)(F)F.c1ccc(C[N+](Cc2ccccc2)=C2[S][Au-]3([S]2)[c]2ccccc2-c2cccc[n+]23)cc1 (stereo not shown) [1D]
[1]
  IC50: 1900 ± 200 nM
[2]
  IC50: 760 ± 100 nM
[3]
  IC50: 1300 ± 300 nM
[4]
  IC50: 1400 ± 300 nM
[5]
  IC50: 1400 ± 100 nM
[6]
  IC50: 1400 ± 200 nM
[7]
  IC50: 1500 ± 400 nM

## CC[N+](CC)=C1[S][Au-]2([S]1)[c]1ccccc1C(=O)c1cccc[n+]12.F[P-](F)(F)(F)(F)F (stereo not shown) [3B]
[1]
  IC50: 220 ± 10 nM
[2]
  IC50: 1200 nM
[3]
  IC50: 1400 ± 100 nM
[4]
  IC50: 1100 ± 300 nM
[5]
  IC50: 1400 ± 300 nM
[6]
  IC50: 7500 ± 1400 nM
[7]
  IC50: 930 ± 180 nM
